The target of experiment [1] is T1, ULK1 (Homo sapiens, UniProt O75385).
T1 sequence (O75385 1-1050): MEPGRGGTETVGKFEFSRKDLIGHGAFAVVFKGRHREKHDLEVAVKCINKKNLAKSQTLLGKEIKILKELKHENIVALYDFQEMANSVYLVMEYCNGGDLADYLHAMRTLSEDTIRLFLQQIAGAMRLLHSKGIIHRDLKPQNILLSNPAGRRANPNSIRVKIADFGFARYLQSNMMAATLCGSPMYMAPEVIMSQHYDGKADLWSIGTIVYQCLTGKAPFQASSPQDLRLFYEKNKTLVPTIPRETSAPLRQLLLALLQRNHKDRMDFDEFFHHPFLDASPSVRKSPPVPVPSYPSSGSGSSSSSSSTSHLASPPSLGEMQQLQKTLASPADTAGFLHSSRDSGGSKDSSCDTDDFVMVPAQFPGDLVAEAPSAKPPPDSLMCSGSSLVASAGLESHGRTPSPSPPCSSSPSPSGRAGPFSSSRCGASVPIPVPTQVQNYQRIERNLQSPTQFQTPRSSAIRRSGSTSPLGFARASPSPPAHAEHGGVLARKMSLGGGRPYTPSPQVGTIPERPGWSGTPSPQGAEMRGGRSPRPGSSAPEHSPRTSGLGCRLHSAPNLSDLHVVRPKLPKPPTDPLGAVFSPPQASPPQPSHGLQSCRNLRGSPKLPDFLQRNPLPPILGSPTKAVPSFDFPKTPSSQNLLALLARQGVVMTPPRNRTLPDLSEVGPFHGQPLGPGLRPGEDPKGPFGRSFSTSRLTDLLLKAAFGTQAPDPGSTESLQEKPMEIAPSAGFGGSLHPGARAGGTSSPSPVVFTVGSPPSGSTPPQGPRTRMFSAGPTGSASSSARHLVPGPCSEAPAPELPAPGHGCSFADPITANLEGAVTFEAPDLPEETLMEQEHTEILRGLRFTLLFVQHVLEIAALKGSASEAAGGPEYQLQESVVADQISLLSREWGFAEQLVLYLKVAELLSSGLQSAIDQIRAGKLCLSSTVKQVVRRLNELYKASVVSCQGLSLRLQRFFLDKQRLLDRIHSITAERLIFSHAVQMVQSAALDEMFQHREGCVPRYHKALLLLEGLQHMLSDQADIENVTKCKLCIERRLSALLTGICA
The settings on record: cited from earlier work.

The test system of experiment [2] is HEK293 PLAP cell line. As to the kind of experiment: PLAP expression by secreted enzymatic activity (p-Nitrophenyl phosphate, 405 nm). In kind it is cell-based. The settings on record: Homo sapiens, PLAP model protein, enzymatic activity readout, read-out: pAC50 for Improved Protein Expression, PLAP (converted). On the procedure:
An additional study was performed on different cells expressing GRFα2 and PLAP. The same assay performed on HEk293 CriptoFC 1B8 was performed on a cell line containing a single gene copy of GFRA2. […] The activity measurement for PLAP is based on the degradation of p-Nitrophenyl phosphate to p-Nitrophenyl which can be followed as an increase in absorbance at 405 nm.

Experiment [3] has as its system HEK293 CriptoFC 1B8 cell line. As to the kind of experiment: Cripto-FC expression by flow cytometry, concentration response. The format is cell-based. Conditions: Homo sapiens, Cripto-FC model protein, 10 point concentration response, top concentration 6 μM, read-out: pAC50 for Improved Protein Expression, Cripto-FC (converted). As to the method:
Human Embryonic Kidney (HEK) cells, Expi293F cell line, were co-transfected using Expifectamine with vectors for targeted integration of one of three model proteins, Cripto-Fc, PLAP and hGFRα2, and a vector expressing Zinc Finger Nucelases that target the AAVS1 locus in the genome. As shown below in Table 3, Cripto-Fc served as a high volume expressing protein, PLAP a medium expressing protein, and hGFRα2 as a low expressing protein. After 48 hours, selection with puromycin blasticidin were applied to enrich for cells with the vectors integrated. After 14 days, cells were sorted by flow cytometry as single cells in 96 well plates. After single colonies were isolated the cells were expanded and analyzed to determine the gene copy number of the recombinant target gene in each clone. […]
To confirm hits from the primary screen, the available positive hits were subjected to the counter screening without addition of antibody-conjugates to remove flourescent compounds. In parallel, a 10 point concentration response curve with a top concentration of 6 μM for each of the compounds was determined. Only compounds that lacked inherent fluorescence, and increased protein expression with at least 30% in a dose-dependent mariner were counted as confirmed hits. […]
In general terms: In flow cytometry, cells or beads pass a laser one at a time.

The term IC50 denotes the concentration that inhibits the measured activity by half.

Regarding `CN1CCc2cc(Nc3ncc(C4CC4)c(NCCCNC(=O)C4CCC4)n3)ccc2C1` [MRT68921], the IC50 in experiment [1] is roughly 2.9 nM. In addition, the AC50 in experiment [2] is 60.3 nM; in experiment [3], 79.4 nM.
